Counter-ions that a name gives are not always drawn.
How the values were obtained:
Assay in all cases: IC50 (viability, PrestoBlue) (log10 nM)
Details in all cases: exposure time: 72 h
[1] = test system: murine gastric organoid RAS-activated (Kras G12D; Tp53 R172H)
Description: (§1)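 Murine gastric corpus organoids (normal uninduced; RAS-activated Kras G12D/Tp53 R172H; diffuse Cdh1/Apc loss; WNT-activated Apc loss/Tp53 R172H) were seeded in Matrigel into pre-spotted 384-well plates. The plates held a 196-compound library at 6.7 nM to 25,004 nM (9 doses) and were incubated 72 h. Viability was read by PrestoBlue fluorescence (560/590 nm). IC50 came from non-linear regression (Prism), reported as log10 IC50 in nM, mean of 3 passages x 2 wells.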

[2] = test system: murine normal gastric organoid
Description: as §1

[3] = test system: murine gastric organoid WNT-activated (Apc fl/fl; Tp53 R172H)
Description: as §1

[4] = test system: murine gastric organoid diffuse (Cdh1 fl/fl; Apc fl/fl)
Description: as §1

Row | Structure (SMILES) | IC50 (log10 nM) [1] | IC50 (log10 nM) [2] | IC50 (log10 nM) [3] | IC50 (log10 nM) [4]
1 | N#CCNC(=O)c1ccc(-c2ccnc(Nc3ccc(N4CCOCC4)cc3)n2)cc1 [CYT387] | 3.51 | 3.48 | 4.05 | 3.58
2 | C=CC(=O)Nc1cc2c(Nc3ccc(F)c(Cl)c3)ncnc2cc1OCCCN1CCOCC1 [Canertinib] | 3.85 | 2.35 | 2.17 | 2.6
3 | CC(C)C[C@H](NC(=O)[C@H](CCc1ccccc1)NC(=O)CN1CCOCC1)C(=O)N[C@@H](Cc1ccccc1)C(=O)N[C@@H](CC(C)C)C(=O)[C@@]1(C)CO1 [Carfilzomib] | 1.16 | 1.16 | 1.32 | 1.04
4 | COc1cc2c(Oc3ccc4[nH]c(C)cc4c3F)ncnc2cc1OCCCN1CCCC1 [Cediranib maleate] | 2.93 | 3.38 | < 0.826 | 2.67
5 | O=C(O)CCCc1ccc(N(CCCl)CCCl)cc1 [Chlorambucil] | 2.93 | 3.32 | 3.92 | 2.48
6 | N.N.[Cl][Pt][Cl] [Cisplatin] | 3.54 | 3 | 3.59 | 3.13
7 | Nc1nc(Cl)nc2c1ncn2[C@H]1C[C@H](O)[C@@H](CO)O1 [Cladribine] | 3.08 | 3.19 | 3.27 | 3.04
8 | Nc1nc(Cl)nc2c1ncn2[C@@H]1O[C@H](CO)[C@@H](O)[C@@H]1F [Clofarabine] | 3.04 | 3.15 | 3.27 | 2.97
9 | O=C(c1ccc(F)c(F)c1Nc1ccc(I)cc1F)N1CC(O)([C@@H]2CCCCN2)C1 [Cobimetinib] | 1.75 | 1.45 | 1.82 | 1.74
10 | COc1c(OCCCN2CCOCC2)ccc2c1N=C(NC(=O)c1cnc(N)nc1)N1CCN=C21 [Copanlisib] | 2 | 1.94 | 1.96 | 2.23
11 | C[C@@H](Oc1cc(-c2cnn(C3CCNCC3)c2)cnc1N)c1c(Cl)ccc(F)c1Cl [Crizotinib] | 2.96 | 3.4 | 2.95 | 3.22
12 | Nc1ccn([C@@H]2O[C@H](CO)[C@@H](O)[C@@H]2O)c(=O)n1 [Cytarabine] | 2.07 | 2.33 | 2.9 | 2.71
13 | Cc1nc(Nc2ncc(C(=O)Nc3c(C)cccc3Cl)s2)cc(N2CCN(CCO)CC2)n1 [Dasatinib hydrochloride] | 1.86 | 2.05 | 1.29 | 2.3
14 | COc1cccc2c1C(=O)c1c(O)c3c(c(O)c1C2=O)C[C@@](O)(C(C)=O)C[C@@H]3O[C@H]1C[C@H](N)[C@H](O)[C@H](C)O1 [Daunorubicin hydrochloride] | 1.6 | 1.56 | 1.73 | 1.77
15 | Nc1ncn([C@H]2C[C@H](O)[C@@H](CO)O2)c(=O)n1 [Decitabine] | > 4.4 | 2.9 | 3.34 | 3.85
16 | CCc1cnn2c(NCc3ccc[n+]([O-])c3)cc(N3CCCC[C@H]3CCO)nc12 [Dinaciclib] | > 4.4 | > 4.4 | 4.28 | 4.11
17 | CN1CCN(c2ccc3nc(-c4c(N)c5c(F)cccc5[nH]c4=O)[nH]c3c2)CC1 [Dovitinib] | 3.46 | 3.21 | 3.41 | 3.4
18 | COc1cccc2c1C(=O)c1c(O)c3c(c(O)c1C2=O)C[C@@](O)(C(=O)CO)C[C@@H]3O[C@H]1C[C@H](N)[C@H](O)[C@H](C)O1 [Doxorubicin] | 2.14 | 2.02 | 2.2 | 2.23
19 | Nc1ccccc1NC(=O)c1ccc(CNC(=O)OCc2cccnc2)cc1 [Entinostat] | 3.36 | 4.22 | 3.99 | 3.39
20 | C#Cc1cccc(Nc2ncnc3cc(OCCOC)c(OCCOC)cc23)c1 [Erlotinib] | > 4.4 | 2.58 | 2.67 | 2.97

Row | Structure (SMILES) | IC50 (log10 nM) [1] | IC50 (log10 nM) [2] | IC50 (log10 nM) [3] | IC50 (log10 nM) [4]
21 | COc1cc([C@@H]2c3cc4c(cc3[C@@H](O[C@@H]3O[C@@H]5CO[C@@H](C)O[C@H]5[C@H](O)[C@H]3O)[C@H]3COC(=O)[C@H]23)OCO4)cc(OC)c1O [Etoposide] | 2.89 | 2.67 | 3.07 | 3.06
22 | CO[C@H]1C[C@@H]2CC[C@@H](C)[C@@](O)(O2)C(=O)C(=O)N2CCCC[C@H]2C(=O)O[C@H]([C@H](C)C[C@@H]2CC[C@@H](OCCO)[C@H](OC)C2)CC(=O)[C@H](C)/C=C(\C)[C@@H](O)[C@@H](OC)C(=O)[C@H](C)C[C@H](C)/C=C/C=C/C=C/1C [Everolimus] | 3.26 | 3.4 | 3.26 | 3.31
23 | O=c1[nH]c(=O)n([C@H]2C[C@H](O)[C@@H](CO)O2)cc1F [Floxuridine] | 3.16 | 2.96 | 1.61 | 3.8
24 | COc1ccc(/C=C\c2cc(OC)c(OC)c(OC)c2)cc1OP(=O)(O)O [Fosbretabulin disodium] | 2.23 | < 0.826 | 1.85 | 2.47
25 | CN(C)c1ccccc1CN1CCCN(Cc2ccccc2N(C)C)C1c1ccncc1 [GANT-61] | 1.22 | 1.27 | 2.6 | 2.53
26 | Cn1nccc1Nc1nccc(-c2ccn([C@H](CO)c3ccc(Cl)c(F)c3)c(=O)c2)n1 [GDC-0994] | 4.35 | 3.71 | 2.88 | 3.23
27 | CC(C)c1cc(-c2n[nH]c(=O)n2-c2ccc3c(ccn3C)c2)c(O)cc1O [Ganetespib] | 1.59 | 1.59 | < 0.826 | 1.5
28 | COc1cc2ncnc(Nc3ccc(F)c(Cl)c3)c2cc1OCCCN1CCOCC1 [Gefitinib] | 4.06 | 1.98 | 2.38 | 2.65
29 | Nc1ccn([C@@H]2O[C@H](CO)[C@@H](O)C2(F)F)c(=O)n1 [Gemcitabine] | 1.54 | 1.23 | 1.74 | 1.53
30 | COC(=O)C[C@](O)(CCCC(C)(C)O)C(=O)O[C@@H]1C(OC)=C[C@]23CCCN2CCc2cc4c(cc2[C@H]13)OCO4 [Homoharringtonine] | 1.56 | 1.91 | 0.956 | 1.82
31 | C=CCc1ccc(O)c(-c2ccc(O)c(CC=C)c2)c1 [Honokiol] | 4.12 | 3.97 | 3.87 | 4.28
32 | CC(C)n1nc(-c2ccc3oc(N)nc3c2)c2c(N)ncnc21 [INK 128] | 1.45 | 1.21 | > 4.4 | 1.42
33 | C=CC(=O)N1CCC[C@@H](n2nc(-c3ccc(Oc4ccccc4)cc3)c3c(N)ncnc32)C1 [Ibrutinib] | 4.23 | 2.2 | 2.48 | 2.53
34 | CC(=O)[C@]1(O)Cc2c(O)c3c(c(O)c2[C@@H](O[C@H]2C[C@H](N)[C@H](O)[C@H](C)O2)C1)C(=O)c1ccccc1C3=O [Idarubicin hydrochloride] | < 0.826 | 1.1 | 0.851 | 1.41
35 | CC(C)C[C@H](NC(=O)CNC(=O)c1cc(Cl)ccc1Cl)B(O)O [Ixazomib (MLN9708)] | 2.12 | 2.8 | 2.6 | 2.51
36 | Cc1cc(Nc2ncc(Cl)c(Nc3ccccc3S(=O)(=O)C(C)C)n2)c(OC(C)C)cc1C1CCNCC1 [LDK378] | 3.08 | 2.84 | 2.55 | 2.8
37 | COC(=O)N[C@@H](C)CNc1nccc(-c2cn(C(C)C)nc2-c2cc(Cl)cc(NS(C)(=O)=O)c2F)n1 [LGX818] | < 0.826 | 3.91 | 2.62 | < 0.826
38 | CS(=O)(=O)CCNCc1ccc(-c2ccc3ncnc(Nc4ccc(OCc5cccc(F)c5)c(Cl)c4)c3c2)o1 [Lapatinib] | 3.12 | 2.54 | 2.43 | 2.84
39 | Cc1ccc(F)c(NC(=O)Nc2ccc(-c3cccc4[nH]nc(N)c34)cc2)c1 [Linifanib] | 3.05 | 3.7 | 3.77 | 4.2
40 | C[C@]1(O)C[C@@H](c2nc(-c3ccc4ccc(-c5ccccc5)nc4c3)c3c(N)nccn32)C1 [Linsitinib] | < 0.826 | 2.84 | 2.69 | 3.68
